The values below come from patent US5631263A, “Use of delta opioid receptor antagonists to treat immunoregulatory disorders” (Minneapolis Medical Research Foundation, priority 1995, dated 1997).

One data set addresses T1, δ1 opioid receptor (Mus musculus, UniProt P32300).
T1 construct: Both vasa deferentia were dissected out of mice; from tissue; host or cells: smooth muscle preparation, inferred mouse vas deferens
Kind of data set: antagonism of DPDPE in smooth muscle. The data set is classed as cell-based. To be noted: Table VIII, read-out: Smooth Muscle Ke, DPDPE (δ1). From the text: (§1) Concentration-response curves were obtained in the absence (control) and the presence of the antagonist are expressed as IC50 values. […] Therefore, a high IC50 ratio represents a correspondingly high degree of antagonism at a particular receptor. […] Therefore, a low Ke represents a correspondingly high degree of binding at a particular receptor.

The target in data set [1] is T2, μ opioid receptor (Mus musculus, UniProt P42866).
T2 construct: evaluated in mice using the tail flick assay; from tissue; host or cells: living mice (i.c.v. injection)
In words: tail flick assay, antagonism of antinociception by μ agonist. The data set is classed as in vivo, mice. To be noted: BNTX 6.25 pmol/i.c.v./mouse. As to the method:
(§2) The antagonist effect of BNTX on antinociceptin was evaluated in mice using the tail flick assay, in accord with the procedure of F. C. Tulunay et al., J. Pharmacol. Exp. Ther., 243, 91 (1987). At least three groups of ten mice were used to generate dose-response curves. A mouse was regarded as positive for antinociception if the latency to flick its tail was more than the control latency plus 3 S.D. of the mean reaction time of the group. The reaction times were determined at the peak time for antinociception after administration of various agonists. Intracerebroventricular (i.c.v.) injections were made in a volume of 5 μl by the method of T. J. Haley et al., Br. J. Pharmacol., 12, 12 (1957).
(§3) On Table VIII, the potencies are expressed as ED50 ratios, which represent the ED50 of the standard agonist administered subcutaneously in the presence of BNTX (6.25 pmol/i.c.v./mouse), divided by the ED50 of the standard agonist.

In data set [2] the target is T3, κ opioid receptor (Cavia porcellus, UniProt P41144).
T3 construct: a strip of longitudinal muscle with the myenteric plexus attached was prepared; from tissue; host or cells: guinea pig ileum longitudinal muscle with myenteric plexus
Kind of data set: antagonism of ethylketazocine in the GPI (Example 7). The data set is classed as cell-based, guinea pig. To be noted: ethylketazocine as agonist, read-out: Ke, κ (Table VII). As to the method: (§4) 1. Guinea Pig Ileal Longitudinal Muscle (GPI). Ilea from guinea pigs were taken approximately 10 cm from the ileocaecal junction, and a strip of longitudinal muscle with the myenteric plexus attached was prepared by method of Rang et al., Brit. J. Pharmacol., 22, 356 (1964), the disclosure of which is incorporated by reference herein. A 1 cm portion of this strip was then mounted between two platinum electrodes placed in a 10 ml organ bath and connected to an isometric transducer. Contractions were recorded on a polygraph. […] The organ bath was maintained at 36°-37° C. The longitudinal muscle strip was allowed to equilibrate with continuous stimulation for a minimum of 90 min.

Data set [3] addresses μ opioid receptor (Cavia porcellus, UniProt A0ACM8Q262). In words: antagonism of morphine in the GPI (Example 7). It is filed as cell-based, guinea pig. To be noted: morphine as agonist, read-out: Ke, μ (Table VII). As to the method:
as §4

Data set [4] addresses T4, κ opioid receptor (Mus musculus, UniProt P33534).
T4 construct: evaluated in mice using the tail flick assay; from tissue; host or cells: living mice (i.c.v. injection)
Kind of data set: tail flick assay, antagonism of antinociception by U50488H. To be noted: BNTX 6.25 pmol/i.c.v./mouse. The data set is classed as in vivo, mice. The method, then: as §2, §3

The target in data set [5] is T5, δ2 opioid receptor (Mus musculus, UniProt P32300). In words: antagonism of DSLET in smooth muscle. Details: Both vasa deferentia were dissected out of mice; from tissue; host or cells: smooth muscle preparation, inferred mouse vas deferens. The data set is classed as cell-based. To be noted: Table VIII, read-out: Smooth Muscle Ke, DSLET (δ2).
From the text: as §1

The target in another data set is T6, δ2 receptors (Cavia porcellus, UniProt A0A286XTF2).
T6 construct: guinea pig brain membranes; from tissue; host or cells: guinea pig brain membranes
In words: binding to guinea pig brain membranes, [3H]DSLET. The method, then:
(§5) Therefore, a better assessment of the δ subtype selectivity can be obtained from binding of brain membranes and from antagonism studies in mice. The binding of BNTX to guinea pig brain membranes was determined using the general method of L. L. Werling et al., J. Pharmacol. Exp. Ther., 233, 722 (1985), as modified by A. E. Takemori et al., J. Pharmacol. Exp. Ther., 246, 255 (1988). The radio-ligands employed were [^3 H]DPDPE ([D-Pen^2, D-Pen^5 ] enkephalin) for δ1receptors, [^3 H]DSLET([D-Ser^2 -Leus]enkephalin-Thr^6) for δ^2 receptors, [3H]DAMGO for μ receptors and U69593(trans-(±)-3,4-dichloro-N-methyl-N-[2-(lpyrididinyl)cyclohexyl]benzeneacetamide) for κ receptors.

In a further data set the target is μ receptors (Cavia porcellus, UniProt A0ACM8Q262). Kind of data set: binding to guinea pig brain membranes, [3H]DAMGO.
Another data set deals with T7, δ opioid receptor (Mus musculus, UniProt P32300).
T7 construct: Both vasa deferentia were dissected out of mice; from tissue; host or cells: mouse vas deferens (isolated, electrically stimulated)
In words: antagonism of DADLE on MVD preparations (Example 7). It is filed as cell-based. The method, then:
2. Mouse Vas Deferens (MVD). […] The organ bath was maintained at 37° C.
as §1

The target in a further data set is T8, δ1 receptors (Cavia porcellus, UniProt A0A286XTF2).
T8 construct: guinea pig brain membranes; from tissue; host or cells: guinea pig brain membranes
Kind of data set: binding to guinea pig brain membranes, [3H]DPDPE. The method, then: as §5

Data set [6] addresses T5, δ2 opioid receptor. In words: tail flick assay, antagonism of antinociception by DSLET. To be noted: BNTX 6.25 pmol/i.c.v./mouse. It is filed as in vivo, mice. Details: evaluated in mice using the tail flick assay; from tissue; host or cells: living mice (i.c.v. injection). As to the method:
as §2, §3

The next data set has as its system immune function. To be noted: both in vivo and in vitro; cited from earlier work.
Data set [7] concerns splenic mononuclear cells (MNC). Kind of data set: depressed AMLR of splenic MNC from rats infected with rat coronavirus. The data set is classed as cell-based. To be noted: FIG. 2. As to the method: Rats were anesthetized with a mixture of 8 mg/ml keta/nine and 2 mg/ml acepromazine (dose=0.1 ml/100 g body weight) and the spleens were removed aseptically. The animals were exsanguinated while under anesthesia. Splenic MNC were released from the surrounding connective tissue by dispersing through a wire mesh. The red blood cells were removed by density gradient centrifugation on ficol-hypaque (Lymphocyte Separation Medium, LSM, Organon Tecknika, Durham, N.C.). The purified MNC were washed in Hanks Balanced Salt Solution containing 1% gelatin and 2 mM EDTA and resuspended in RPMI-1640 medium containing 5% Fetal Bovine Serum (FBS), 100 U/ml penicillin, 100 ug/ml streptomycin and 5×10^-5 M 2-mercaptoethanol. In some experiments, TCM™, a defined medium supplement (CELOX, Minneapolis, Minn.), was used instead of FBS.
Purified MNC were placed in 96-well round bottom plates at 2×10^5cells/well in a total volume of 0.2 ml and incubated for 5 days at 37° C. […] The cells were then harvested onto glass fiber filter paper and counted in a Beckman (Fullerton, Calif.) scintillation counter. The results are calculated as the mean counts per minute of triplicate wells, and are expressed as percent of control (cpm suppressed AMLR/cpm control AMLR). […]

The target in data set [8] is mu opioid receptors. To be noted: read-out: Ke, M (morphine); GPI, agonist morphine; antagonist 100 or 200 nM, 15 min; cited from earlier work.
Data set [9] concerns splenic MNC (T and non-T cells). Kind of data set: depressed AMLR of splenic cells from mice infected with mCMV. The data set is classed as cell-based. To be noted: for reversal of AMLR suppressed by CMV 10^-4: AMLR suppressed 42%; for reversal of AMLR suppressed by CMV 10^-2: AMLR suppressed 20%. As to the method:
Mice were injected i.p. with serial 10-fold dilutions of a stock mCMV solution. Dilutions of stock virus ranged from 10^-2 to 10^-6. Mice were sacrificed after 10 days of infection. Control mice were injected with saline.
Splenic MNC from CMV-infected and uninfected mice were purified by density gradient centrifugation on LSM, as described above for the rat splenic MNC. T and non-T cell fractions were separated by nylon wool columns as disclosed by M. H. Julius et al., Eur. J. Immunol., 3, 645 (1973). The T-enriched cells were used as responder cells. The non-T cells were treated with mitomycin-C to stop their proliferation, as described by K. M. Linner et al., Endocrinol., 128, 717 (1991) and used as stimulator cells. Autologous cell cultures were then set up, with equal numbers (2×10^5) of responder T and stimulator non-T cells being cultured in the 96-well microtiter plates. Cells were cultured for 5 days. To some wells, NTI at 10^-10, 10^-12 or 10^-14 M, concentrations determined to be optimal from the rat AMLR studies, was added for the duration of the culture period. ^3 H-thymidine was added to each well for the last 18 hr of incubation, and the cultures were harvested and counted as described above.

The next data set has as its system delta opioid receptors. To be noted: 20 mg/kg s.c.; in words; cited from earlier work.
Data set [10] concerns mixed lymphocyte responses. To be noted: cited from earlier work.
Data set [11] has as its system allogeneic murine spleen cells. To be noted: cited from earlier work.
In a further data set the test system is kappa opioid receptors. To be noted: 20 mg/kg s.c.; in words; cited from earlier work.
For data set [12] the following is noted: both in vivo and in vitro; cited from earlier work.
For another data set, the system named is renal allograft. To be noted: in words; cited from earlier work.
Data set [13] deals with mu opioid receptors. To be noted: 20 mg/kg s.c.; in words; cited from earlier work.
Data set [14] deals with enkephalin-binding receptor on cells of the immune system. To be noted: in words; cited from earlier work.

“Also recorded” adds a separate entry of the source.

T8 sequence (A0A286XTF2 1-366): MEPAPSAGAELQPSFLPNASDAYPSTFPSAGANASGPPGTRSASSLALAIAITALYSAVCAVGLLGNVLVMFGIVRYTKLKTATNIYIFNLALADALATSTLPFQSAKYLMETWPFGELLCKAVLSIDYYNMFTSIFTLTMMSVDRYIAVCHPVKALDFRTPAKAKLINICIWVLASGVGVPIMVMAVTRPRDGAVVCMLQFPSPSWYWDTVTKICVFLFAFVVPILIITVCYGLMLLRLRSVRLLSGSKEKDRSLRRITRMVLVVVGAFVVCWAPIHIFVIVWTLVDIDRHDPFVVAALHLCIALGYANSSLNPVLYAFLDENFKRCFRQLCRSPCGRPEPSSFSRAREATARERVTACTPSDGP
T5 sequence (P32300 whole entry): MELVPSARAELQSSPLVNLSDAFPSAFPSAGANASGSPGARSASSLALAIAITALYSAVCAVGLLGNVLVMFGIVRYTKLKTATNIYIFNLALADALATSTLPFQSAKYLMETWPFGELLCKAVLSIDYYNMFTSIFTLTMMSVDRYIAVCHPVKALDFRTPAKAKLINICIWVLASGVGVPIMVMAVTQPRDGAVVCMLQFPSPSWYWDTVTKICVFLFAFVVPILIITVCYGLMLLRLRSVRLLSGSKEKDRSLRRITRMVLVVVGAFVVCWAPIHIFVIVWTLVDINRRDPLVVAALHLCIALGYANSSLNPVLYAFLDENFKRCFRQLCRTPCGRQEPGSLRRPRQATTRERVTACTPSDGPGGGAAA
T7 sequence (P32300 whole entry): as above
T2 sequence (P42866 whole entry): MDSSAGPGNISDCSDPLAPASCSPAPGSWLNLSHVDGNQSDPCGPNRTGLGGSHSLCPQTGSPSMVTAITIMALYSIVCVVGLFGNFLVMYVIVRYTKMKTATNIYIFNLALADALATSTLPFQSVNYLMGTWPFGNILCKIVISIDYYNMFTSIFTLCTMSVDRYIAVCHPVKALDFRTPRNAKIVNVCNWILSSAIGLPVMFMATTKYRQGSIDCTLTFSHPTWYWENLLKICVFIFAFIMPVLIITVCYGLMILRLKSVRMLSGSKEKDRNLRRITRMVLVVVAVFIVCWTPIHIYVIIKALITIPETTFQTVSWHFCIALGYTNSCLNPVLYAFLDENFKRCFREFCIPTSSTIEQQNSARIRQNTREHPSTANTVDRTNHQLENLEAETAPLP
T4 sequence (P33534 whole entry): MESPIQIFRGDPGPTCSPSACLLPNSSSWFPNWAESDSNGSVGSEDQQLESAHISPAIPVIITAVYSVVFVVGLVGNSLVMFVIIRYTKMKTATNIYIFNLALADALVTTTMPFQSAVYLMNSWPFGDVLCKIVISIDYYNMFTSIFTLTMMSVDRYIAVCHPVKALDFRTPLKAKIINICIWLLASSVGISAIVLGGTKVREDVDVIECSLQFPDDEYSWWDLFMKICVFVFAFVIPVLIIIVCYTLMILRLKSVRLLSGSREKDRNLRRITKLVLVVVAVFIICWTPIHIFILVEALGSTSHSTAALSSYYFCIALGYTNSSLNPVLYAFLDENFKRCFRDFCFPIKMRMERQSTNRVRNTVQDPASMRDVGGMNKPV
T6 sequence (A0A286XTF2 1-366): as the sequence (A0A286XTF2 1-366) above
T3 sequence (P41144 whole entry): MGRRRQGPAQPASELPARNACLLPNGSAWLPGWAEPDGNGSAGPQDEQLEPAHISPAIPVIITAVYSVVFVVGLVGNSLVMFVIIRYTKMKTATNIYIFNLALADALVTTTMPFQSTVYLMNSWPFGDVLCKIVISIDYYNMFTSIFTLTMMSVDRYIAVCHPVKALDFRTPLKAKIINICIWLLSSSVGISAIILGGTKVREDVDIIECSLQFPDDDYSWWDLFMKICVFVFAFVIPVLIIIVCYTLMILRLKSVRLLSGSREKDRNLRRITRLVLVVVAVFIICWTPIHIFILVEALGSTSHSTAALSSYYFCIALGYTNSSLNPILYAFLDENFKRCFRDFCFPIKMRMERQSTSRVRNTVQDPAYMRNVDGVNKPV
μ opioid receptor (Cavia porcellus, UniProt A0ACM8Q262), sequence (A0ACM8Q262 1-400): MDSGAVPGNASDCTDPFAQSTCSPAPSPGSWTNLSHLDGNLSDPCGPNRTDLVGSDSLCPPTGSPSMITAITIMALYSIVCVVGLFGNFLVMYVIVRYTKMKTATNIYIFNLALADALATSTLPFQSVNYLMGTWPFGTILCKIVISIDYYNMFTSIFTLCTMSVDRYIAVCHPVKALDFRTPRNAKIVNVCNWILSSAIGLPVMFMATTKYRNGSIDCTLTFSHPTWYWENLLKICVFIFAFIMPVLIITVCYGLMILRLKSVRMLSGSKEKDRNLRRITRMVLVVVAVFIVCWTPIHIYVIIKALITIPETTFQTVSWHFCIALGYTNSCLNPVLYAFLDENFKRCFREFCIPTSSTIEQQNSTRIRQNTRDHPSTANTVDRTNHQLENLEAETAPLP
μ receptors, sequence (A0ACM8Q262 1-400): as above
T1 sequence (P32300 whole entry): as the sequence (P32300 whole entry) above

Turning to `O=C1C(=Cc2ccccc2)C[C@@]2(O)[C@H]3Cc4ccc(O)c5c4[C@@]2(CCN3CC2CC2)[C@H]1O5` [BNTX, 7-Benzylidene-7-dehydronaltrexone], the Kb on δ1 opioid receptor was found to be 5.2 nM; on κ opioid receptor [2] it was 100 nM; at μ opioid receptor [3] it was 8.3 nM; on δ2 opioid receptor [5] it was 2.1 nM; on δ opioid receptor it was 2.9 nM. Besides, the “ED50 Ratio ("Potency Ratio"), DAMGO row” value on μ opioid receptor [1] is given as 0.88. The “shift of the morphine dose-response curve” value at μ opioid receptor [1] (in words) was “not shifted significantly”. Moreover, the “ED50 Ratio ("Potency Ratio"), U50488H” value at κ opioid receptor [4] worked out at 1.2. In addition, the “shift of the U50488H dose-response curve” value at κ opioid receptor [4] (in words) is given as “not shifted significantly”. The Ki at δ2 receptors turned out to be 10.8 nM; on μ receptors, 13.3 nM; on δ1 receptors (guinea pig brain membranes), 0.1 nM. Also, at δ opioid receptor (GPI ethylketazocine / MVD DADLE), the “Ke Ratio κ/δ” value stood at 35. On δ opioid receptor (GPI morphine / MVD DADLE), the “Ke Ratio μ/δ” value is on record as 2.9. Also, the “Ke ratios compared with NTI and naltrexone, in words” value at δ opioid receptor (Table VII data) is on record as “less than those of the standard δ agonist NTI, but greater than those of naltrexone”. The “receptor selectivity in words” value at δ opioid receptor (Table VII data) was “δ-selective antagonist”. The “δ1 selectivity in words” value at δ1 receptors (binding) was “highly selective for δ1 receptor sites; also recorded: first δ1 opioid receptor subset-selective antagonist”. The “binding ratio, Ki(δ2)/Ki(δ1)” value on δ1 receptors (guinea pig brain membranes) is recorded as “about 100”. The “ED50 Ratio ("Potency Ratio"), DSLET” value at δ2 opioid receptor [6] was determined as 0.91. Moreover, the “shift of the DSLET dose-response curve” value on δ2 opioid receptor [6] (in words) is “not shifted significantly”.

For `Oc1ccc2c3c1O[C@H]1c4[nH]c5ccccc5c4C[C@@]4(O)[C@@H](C2)N(CC2CC2)CC[C@]314` [Compound 1, 17-(cyclopropylmethyl)-6,7-dehydro-3,14β-dihydroxy-4,5α-epoxy-6,7-2',3'-indolmorphinan], the immunosuppression result with immune function was “immunosuppressive”. In addition, the “reversal of depressed AMLR” value in data set [7] was “reversed”. Further, the Kb at mu opioid receptors [8] is […]; on μ opioid receptor [3], […]. The “reversal of the suppressed AMLR caused by CMV infection” value in data set [9] (FIGS. 4A and 4B) was “can reverse the suppressed AMLR”. The “reversal of AMLR suppressed by CMV 10^-4” value is “partially” in [9] (NTI 10^-10 M) and “reversed completely” in data set [9] (NTI 10^-14 M-10^-12 M). For the same molecule, the “reversal of AMLR suppressed by CMV 10^-2” value in data set [9] (NTI 10^-12 and 10^-10 M) is on record as “completely reversed”; in [9] (NTI 10^-14 M) it was “not by NTI at 10^-14 M”. Also, in the data set with delta opioid receptors, the “block of writhing inhibition due to DSLET” value was “effectively blocked”. In data set [10] (in both in vitro responses), the “effectiveness compared with cyclosporine A (CsA)” value was “less effective than cyclosporine A (CsA)”. Also, the “allogeneic and xenogeneic mixed lymphocyte responses” value in data set [10] (in vitro, in words) is “suppress in vitro allogeneic and xenogeneic mixed lymphocyte responses”. For the same molecule, in [11], the MLR suppression entry is recorded as “strongly suppresses the MLR”. In the data set on kappa opioid receptors, the “antagonism of the effect of U50488H” value is given as “without significantly antagonizing”. The toxicity result in data set [12] is “non-toxic”. Moreover, in the data set with renal allograft, the allograft survival result is listed as “prolong allograft survival”. For the same molecule, the “antagonism of the effect of morphine” value with mu opioid receptors [13] was “without significantly antagonizing”.

`C=CCN1CC[C@]23c4c5ccc(O)c4O[C@H]2C(=O)CC[C@@]3(O)[C@H]1C5` [naloxone]: the “block of many of the effects of enkephalins on immune function” value in data set [14] was “blocked”.
